Laboratory results reported in patent US11752125B2, “Anti-neuroinflammatory and protective compounds in Achillea fragrantissima” (THE STATE OF ISRAEL MINISTRY OF AGRICULTURE & RURAL …, priority 2013, dated 2023).

Key:
Type in all cases: cell-based, rat
[1] = tested on: microglial cells; assay: Cellular antioxidant activity (ABAP peroxyl radicals) in microglial cells; conditions: ABAP 0.6 mM, dexamethasone at nanomolar concentrations
Procedure: Intracellular ROS production was detected using the non-fluorescent cell permeating compound, 2′7′-dichlorofluorescein diacetate (DCF-DA). DCF-DA is hydrolyzed by intracellular esterases and then oxidized by ROS to a fluorescent compound 2′-7′-DCF. Peroxyl radicals are generated by thermolysis of 2,2′-Azobis(amidinopropane) (ABAP) at physiological temperature. ABAP decomposes at approximately 1.36×10^−6s^−1 at 37° C., producing at most 1×10^12 radicals/mL/s. Microglial cells (130,000 cells/well) were plated in DMEM containing 2% FBS, 8.4 mM HEPES, 2 mM glutamine, 100 U/mL penicillin and 100 μg/mL streptomycin, onto 24 wells plates. In order to measure the ability of achillolide A to enter the cells and prevent the formation of DCF by ABAP-generated peroxyl radicals, cells were incubated for 1 h with achillolide A. Then cells were preloaded with DCF-DA for 30 min, washed twice with PBS, and ABAP (0.6 mM final concentration) was then added. The fluorescence, which indicates ROS levels, was measured in a plate reader with excitation at 485 nm and emission at 520 nm.
Cells were incubated for 1 h with different concentrations of achillolide A. Then, the cells were pre-loaded with DCF-DA for 30 min and washed. ABAP (0.6 mM) was added to the culture and ROS levels were measured at the indicated time points. […]

[2] = tested on: microglial cells; assay: Cytotoxicity in LPS-activated microglial cells (LDH); conditions: LPS 4.5 ng/mL, 20 h
Procedure: Cell viability was determined using a commercial colorimetric assay (Roche Applied Science, Germany) which measures Lactate Dehydrogenase (LDH) activity released from the cytosol of damaged cells into the incubation medium. The absorbance was measured at 492 nm in a plate reader. The percentage of cytotoxicity was calculated according to the following equation, where the LDH activity released from the untreated cells is the spontaneous LDH release, and the maximum releasable LDH in the cells is the:
In FIG. 21 A, microglial cells were treated with different concentrations of achillolide A, dexamethasone or memantine (as reference drugs) and were concomitantly activated by LPS (4.5 ng/mL) for 20 h. Cell conditioned supernatants were collected, and the levels of NO were measured using Griess reaction. Cytotoxicity was measured using the LDH method (FIG. 21B). Values represent the mean±SEM (n=12 for each treatment). ** p<0.01; ***p<0.001 relative to cells that were treated to LPS only.

[3] = tested on: IL-6; assay: IL-6 secretion from LPS-stimulated microglial cells (ELISA); conditions: LPS 100 ng/mL, 24 h
Procedure: 2. Plate microglial cells (3.5×10^4 cells/well) on a 24-well tissue culture plate, in DMEM containing 10% FBS, 2 mM glutamine, 100 U/ml penicillin and 100 micrograms/mL streptomycin;
Microglial cells were treated with different concentrations of TTF, followed by stimulation with LPS (100 ng/mL). After 24 h, conditioned media were collected and tested for cytokine levels by ELISA. Cell viability was determined using the crystal violet assay (FIG. 9C). Values represent the means±SEM (n=4 for each treatment).

In the case of C=C1CCC2=C(CO)C(=O)O[C@H]2/C=C(\C)[C@H](OC(C)=O)CC1=O [achillolide A], the “inhibition of the ABAP-induced increase in ROS fluorescence” value [1] is reported as 54% and the “cytotoxic effect in activated microglial cells” value [2] is reported as “without a significant cytotoxic effect”.
With COc1cc(-c2oc3cc(OC)c(OC)c(O)c3c(=O)c2O)ccc1O [TTF, 3,5,4′-trihydroxy-6,7,3′-trimethoxyflavone] the “effect on LPS-elicited IL-6 secretion” value [3] was “markedly inhibited”.
